In ChEMBL document CHEMBL1201862, “PubChem BioAssay data set” (2004):
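Growth conditions: 96-well plates. Treatment: test compound, 48 hours, 5 concentrations. Analysis: linear interpolation between bracketing concentrations; unreached endpoints set to highest concentration. The concentration for 50% growth inhibition is given as GI50.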 The source made the active and inactive calls. Rule as the data show it: active = GI50 up to about 1.1 µM and inactive = higher.

Experiments:
Test in all cases: NCI anticancer screen, dose series, 48 h
K562 = system: K562
OVCAR-8 = system: OVCAR-8
OVCAR-3 = system: OVCAR-3
UACC-62 = system: UACC-62
SF-539 = system: SF-539
DMS-114 = system: DMS-114
SK-OV-3 = system: SK-OV-3
HT-29 = system: HT-29
SN12C = system: SN12C
CAKI-1 = system: CAKI-1
KM12 = system: KM12
MOLT-4 = system: MOLT-4
HCC 2998 = system: HCC 2998
Hs-578T = system: Hs-578T
MDA-N = system: MDA-N
DU-145 = system: DU-145
T47D = system: T47D
MDA-MB-435 = system: MDA-MB-435
PC-3 = system: PC-3
MDA-MB-231 = system: MDA-MB-231

Measured: GI50

COc1ccc2c(c1)[n+]([O-])c(/C(C)=N/NC(=O)c1ccccc1O)c(C)[n+]2[O-]
inactive: K562 > 100 µM | OVCAR-8 97.9 µM | OVCAR-3 > 100 µM | UACC-62 > 100 µM | SF-539 > 100 µM | DMS-114 > 100 µM | SK-OV-3 > 100 µM | HT-29 > 100 µM | SN12C > 100 µM | CAKI-1 > 100 µM | KM12 > 100 µM | MOLT-4 > 100 µM | HCC 2998 > 100 µM

O=C(c1ccccc1)c1nc2ccc(Cl)cc2c2c1Cc1ccccc1-2
inactive: K562 > 100 µM | OVCAR-8 > 100 µM | OVCAR-3 > 100 µM | UACC-62 > 100 µM | SF-539 > 100 µM | DMS-114 > 100 µM | SN12C > 100 µM | CAKI-1 > 100 µM | KM12 > 100 µM | MOLT-4 > 100 µM | HCC 2998 > 100 µM

C=C1C(=O)OC2C/C(C)=C/CC/C(C)=C/CCC3(COC(C)=O)OC3CC12 (configuration not stated)
inactive: K562 5.68 µM | OVCAR-8 6.52 µM | OVCAR-3 6.19 µM | UACC-62 11.8 µM | SF-539 2.85 µM | DMS-114 4.09 µM | SK-OV-3 13.7 µM | HT-29 8.32 µM | SN12C 15.6 µM | CAKI-1 3.31 µM | KM12 13.7 µM | MOLT-4 4.42 µM | HCC 2998 8.85 µM

Cc1cc(Cl)ccc1NC(=O)CCCC(=O)C1C/C(=N/O)CC/C1=N\O (configuration not stated)
inactive: K562 > 100 µM | OVCAR-8 > 100 µM | OVCAR-3 > 100 µM | UACC-62 > 100 µM | SF-539 > 100 µM | DMS-114 > 100 µM | SK-OV-3 > 100 µM | HT-29 > 100 µM | SN12C > 100 µM | CAKI-1 > 100 µM | KM12 > 100 µM | MOLT-4 > 100 µM | HCC 2998 > 100 µM

CC(=O)CC1CCC(=O)/C=C/C(=O)OC(CC(C)=O)CCC(=O)/C=C/C(=O)O1 (configuration not stated)
inactive: K562 3.25 µM | Hs-578T 27.9 µM | MDA-N 9.53 µM | OVCAR-8 19.3 µM | OVCAR-3 6.79 µM | UACC-62 14.6 µM | DU-145 19.6 µM | SF-539 19.3 µM | T47D 2.09 µM | SK-OV-3 20.7 µM | HT-29 11.2 µM | MDA-MB-435 17 µM | PC-3 15 µM | SN12C 8.55 µM | CAKI-1 6.53 µM | MDA-MB-231 5.09 µM | KM12 20.8 µM | MOLT-4 2.19 µM | HCC 2998 22.8 µM

C#CC(C)(C)Oc1cc(O)c2c(=O)c3ccccc3n(C)c2c1
inactive: K562 > 100 µM | OVCAR-8 35.8 µM | OVCAR-3 > 100 µM | UACC-62 > 100 µM | SF-539 15.5 µM | DMS-114 > 100 µM | SK-OV-3 > 100 µM | HT-29 34 µM | SN12C > 100 µM | CAKI-1 > 100 µM | MOLT-4 > 100 µM | HCC 2998 77.4 µM

O=C(NCCCCCCCCCCCCNC(=O)c1cccc2ccccc12)c1cccc2ccccc12
inactive: K562 > 100 µM | OVCAR-8 31.5 µM | OVCAR-3 > 45.9 µM | UACC-62 > 100 µM | SF-539 1.66 µM | DMS-114 > 100 µM | SK-OV-3 > 47.5 µM | HT-29 > 100 µM | SN12C > 68.4 µM | CAKI-1 23.3 µM | KM12 97.3 µM | MOLT-4 > 100 µM | HCC 2998 > 100 µM

N#Cc1cccc2c1Nc1ccccc1S2
inactive: K562 > 100 µM | OVCAR-8 79.3 µM | OVCAR-3 > 100 µM | UACC-62 60.7 µM | SF-539 46.7 µM | DMS-114 81.1 µM | SK-OV-3 > 100 µM | HT-29 > 100 µM | SN12C > 100 µM | CAKI-1 > 100 µM | KM12 > 100 µM | MOLT-4 > 100 µM | HCC 2998 > 100 µM

NCCCc1c(-c2ccccc2)[nH]c(N)nc1=O
inactive: K562 > 100 µM | Hs-578T > 100 µM | MDA-N > 100 µM | OVCAR-8 > 100 µM | OVCAR-3 > 100 µM | UACC-62 > 100 µM | DU-145 > 100 µM | SF-539 > 100 µM | T47D > 100 µM | SK-OV-3 > 100 µM | HT-29 > 100 µM | MDA-MB-435 > 100 µM | PC-3 > 100 µM | SN12C > 100 µM | CAKI-1 > 100 µM | MDA-MB-231 > 100 µM | KM12 > 100 µM | MOLT-4 > 100 µM | HCC 2998 > 100 µM

Cc1ccc(S(=O)(=O)NC(=O)C#CCOC2CCCCO2)cc1 (configuration not stated)
inactive: K562 > 100 µM | OVCAR-8 > 100 µM | OVCAR-3 > 100 µM | UACC-62 > 100 µM | SF-539 > 100 µM | DMS-114 > 100 µM | HT-29 > 100 µM | SN12C > 100 µM | CAKI-1 > 100 µM | MOLT-4 > 100 µM | HCC 2998 > 100 µM

COc1ccc2nc3cc(Cl)ccc3c(NCCC[N+](C)(C)CCCCCCCCCCCCCCCC[N+](C)(C)CCCNc3c4ccc(Cl)cc4nc4ccc(OC)cc34)c2c1
inactive: K562 1.85 µM | OVCAR-8 3.15 µM | OVCAR-3 4.81 µM | UACC-62 2.69 µM | SF-539 2.25 µM | DMS-114 1.89 µM | SK-OV-3 4.33 µM | HT-29 1.61 µM | SN12C 3.22 µM | CAKI-1 10.6 µM | KM12 1.64 µM | MOLT-4 1.43 µM | HCC 2998 2.84 µM

O=C(Nc1ccccc1C(=O)NC(=O)c1ccccc1NC(=O)c1ccccc1)c1ccccc1
inactive: K562 4.83 µM | OVCAR-8 5.04 µM | OVCAR-3 3.29 µM | UACC-62 2.07 µM | SF-539 5.09 µM | DMS-114 2.17 µM | HT-29 2.22 µM | SN12C 4.51 µM | CAKI-1 10.6 µM | KM12 1.58 µM

COc1ccccc1NC(=O)NS(=O)(=O)c1ccccc1
inactive: OVCAR-8 > 100 µM | SF-539 > 100 µM | DMS-114 > 100 µM | HT-29 > 100 µM | SN12C > 100 µM | CAKI-1 91.6 µM | KM12 > 100 µM | HCC 2998 > 100 µM

CC(C)N(C(=O)C12C3C4C1C1C2C3C41C(=O)C(C)(C)C)C(C)C (configuration not stated)
inactive: K562 20.8 µM | OVCAR-8 > 100 µM | OVCAR-3 > 100 µM | UACC-62 > 100 µM | SF-539 > 100 µM | DMS-114 52.5 µM | SK-OV-3 > 100 µM | HT-29 76.7 µM | SN12C > 100 µM | CAKI-1 > 100 µM | KM12 > 100 µM | MOLT-4 26.7 µM | HCC 2998 > 100 µM

CC1=C(C(=O)NCc2ccccc2)C(/C=C/c2ccccc2)C(C(=O)NCc2ccccc2)=C(C)N1
inactive: K562 > 100 µM | OVCAR-8 > 100 µM | OVCAR-3 > 100 µM | UACC-62 > 100 µM | SF-539 > 100 µM | DMS-114 > 100 µM | HT-29 > 100 µM | SN12C > 100 µM | CAKI-1 > 100 µM | KM12 > 100 µM | MOLT-4 > 100 µM | HCC 2998 > 100 µM

O=[N+]([O-])c1ccc(N=P(c2ccccc2)(c2ccccc2)c2ccccc2)n2nnnc12
inactive: K562 67 µM | OVCAR-8 31 µM | OVCAR-3 34.5 µM | UACC-62 37.3 µM | SF-539 23 µM | DMS-114 72.3 µM | SK-OV-3 46.1 µM | HT-29 > 100 µM | SN12C 82.4 µM | CAKI-1 45.1 µM | KM12 66.4 µM | MOLT-4 77.8 µM

Cc1cccc(C)c1NC(=O)C(=O)Nn1c(NN)nc2ccccc2c1=O
inactive: K562 > 100 µM | OVCAR-8 > 100 µM | OVCAR-3 > 100 µM | UACC-62 > 100 µM | SF-539 > 100 µM | DMS-114 > 100 µM | SK-OV-3 > 100 µM | HT-29 > 100 µM | SN12C > 100 µM | CAKI-1 > 100 µM | KM12 > 100 µM | MOLT-4 > 100 µM | HCC 2998 > 100 µM

CCCCOC(=O)NC(=O)c1cn(CCCOC(=O)CCCCCCCCC(=O)OCCCn2cc(C(=O)NC(=O)OCCCC)c(=O)[nH]c2=O)c(=O)[nH]c1=O
inactive: K562 > 100 µM | OVCAR-8 > 100 µM | OVCAR-3 > 100 µM | UACC-62 > 100 µM | SF-539 > 100 µM | DMS-114 > 100 µM | SK-OV-3 > 100 µM | HT-29 > 100 µM | SN12C > 100 µM | KM12 > 100 µM | MOLT-4 > 100 µM | HCC 2998 > 100 µM

O=C1C2C3C=C4c5ccccc5N(c5ccccc5)C4([C@@H]2C(=O)N1c1ccc(F)cc1)[C@H]1C(=O)N(c2ccc(F)cc2)C(=O)[C@@H]31 (some centres not stated)
inactive: K562 > 100 µM | OVCAR-8 > 100 µM | OVCAR-3 > 100 µM | SF-539 > 100 µM | DMS-114 > 100 µM | SN12C 82 µM | KM12 > 100 µM | MOLT-4 > 100 µM | HCC 2998 > 100 µM

C=C1CC2OC(=O)C(=C)C2C(O)C2C(=C)CCC12 (configuration not stated)
inactive: K562 3.47 µM | OVCAR-8 4.1 µM | OVCAR-3 10.1 µM | UACC-62 3.48 µM | SF-539 3.69 µM | DMS-114 4.55 µM | SK-OV-3 12.4 µM | HT-29 3.78 µM | SN12C 5.73 µM | CAKI-1 5.25 µM | KM12 10.8 µM | MOLT-4 2.75 µM | HCC 2998 10.2 µM
